Laboratory results published in patent US11224619B2, “Formulations and methods for treatment of inflammatory skin diseases” (Zemtsov Enterprises, LLC, priority 2012, dated 2022).

System: atopic dermatitis / plaque psoriasis
Assay: Response of individual study subjects to earlier therapy

C[C@H]1C[C@H]2[C@@H]3CCC4=CC(=O)C=C[C@]4(C)[C@@]3(F)[C@@H](O)C[C@]2(C)[C@@]1(O)C(=O)CCl [clobetasol]
Response to earlier therapy (Subject #2, chronic atopic dermatitis on the neck): unresponsive

CC(=O)OCC(=O)[C@@]12OC(C)(C)O[C@@H]1C[C@H]1[C@@H]3C[C@H](F)C4=CC(=O)C=C[C@]4(C)[C@@]3(F)[C@@H](O)C[C@@]12C [fluocinonide]
Response to earlier therapy (Subject #5, persistent psoriatic lesions on the abdomen): unresponsive

etanercept
Disease control under ongoing therapy (Subject #5, chronic severe plaque psoriasis, subcutaneous injections): reasonable control
